From US20080020421A1, “METHODS OF SCREENING AGENTS FOR CYTOTOXIC AND ANTIMICROBIAL ACTIVITY” (priority 2006, published 2008)

Legend:
HeLa-GFP cells [1] = assay: Fluorescent microscopy cytotoxicity assay (LD50 determination, FIG. 2); format: cell-based, human; details: for approximate LD50 in HeLa-GFP: various concentrations, cell counts under fluorescent microscopy, FIG. 2
Protocol: The concentration of the test compounds (μM) are shown within the figure. Horizontal bar indicates the 50% toxicity range. H2O2 (+control, 1 mM) was used as a positive control (+; 100% cytolysis) while cells treated with DMSO (1 μl; solvent for all quinones) was used as the negative (−) control.
Fluorescent microscopy cytotoxicity assays. HeLa-GFP cells were plated on 24-well plates and left overnight to adhere. Different dilutions of the quinones were then added to each well (indicated in the legend) using the same concentrations of the positive and negative controls as described in the previous assay. Cell counts were done under fluorescent microscopy to determine cytotoxicity. The status of the fluorescent GFP-nuclei and the typical morphological characteristics of cells undergoing cell death were taken into account when differentiating between dying or viable cells as previously described (Montoya et al., 2004).

E. coli-GFP = assay: Toxicity assay with GFP-expressing E. coli; details: for Percent-GFP-fluorescence after incubation with test compounds, E. coli-GFP (20 μg/ml): 10 h incubation, relative to untreated bacteria; for toxicity to E. coli (in words): loss of GFP signal, Table 1 screen
Protocol: (§1) E. coli-GFP cells were grown in LB broth media while the MAC104 M. avium strain was grown in 7H9-ADC media.
(§2) Toxicity assays with GFP-expressing bacteria. E. coli was transformed with a GFP-expression plasmid that also confers tetracycline resistance was kindly provided by Dr. David Schneider (Elrod-Erickson et al., 2000). […] Both bacterial strains were grown and selected based on antibiotic resistance and GFP expression. All toxicity assays were performed using the plates and fluorometric parameters described in the previous section. Bacterial cell suspensions were seeded in a final volume of 100 μl at an optical density of 0.05 and 0.25 at 650 nm, for E. coli-GFP and M. avium-GFP, respectively. After exposure to the test compounds, assay plates were incubated at 37° C. in a humid environment to prevent dehydration in the wells. Unlike the HeLa-GFP assays, reading were performed without removing the supernatants to avoid loss of cells. Several untreated wells containing bacteria and media were used to determine the maximum level of fluorescence. Several wells containing media alone (no bacteria) were included in each assay to remove background fluorescence.
(§3) Data analysis. All compounds, including controls, were screened in triplicate. The average of the three wells that were used for the removal of the background fluorescence (wells containing water for the HeLa-GFP assays and wells containing media alone for bacteria) was subtracted from each individual well. The mean of these triplicate values for each compound was then obtained.

HeLa-GFP cells [2] = assay: HeLa-GFP fluorometric cytotoxicity assay; details: for Percent-GFP-fluorescence after incubation with test compounds, HeLa-GFP (2 μg/ml) / Percent-GFP-fluorescence after incubation with test compounds, HeLa-GFP (20 μg/ml): 18 h incubation, relative to untreated (DMSO) cells; for toxicity to HeLa-GFP cells (in words): loss of GFP signal, Table 1 screen
Protocol: Cell culture. HeLa-GFP cells were cultured in DMEM media supplemented with 10% heat-inactivated newborn calf serum as previously described (Montoya et al., 2004). Stock cultures were prewashed twice with PBS before the treatment of trypsin for cell resuspension and subsequently re-plated at the concentration of 4,000 cells/well.
HeLa-GFP fluorometric cytotoxicity assay. All cell lines were seeded in clear-bottomed 96-well assay plates (3603, Costar, Corning Inc., Corning, N.Y.) in order to minimized background fluorescence. HeLa cells were grown in a total volume of 0.2 ml of medium and incubated overnight for proper cell attachment. The quinone compounds were then added to each well (in triplicate) and then incubated for a period of 18 hr. For the determination of fluorescence, the assay plates were then read using the Fluoroskan Ascent F1 fluorometer (Thermo Electron Corp.) set at the excitation and emission parameters of 485 and 518 nm, respectively. Since the HeLa-GFP cell line is adherent, the fluorometer was set to read from the bottom of the plate for closer proximity to the cells. Before the readings were performed, all supernatant media was removed to avoid any background interference and thus enhancing the sensitivity of the optical readings. For calibration purposes, three untreated control wells were used to determine the maximum level of fluorescence (100%). […] As a cytolysis control (complete loss of fluorescence), three wells containing cells were exposed to 0.2 ml of deionized water. These controls were then used to calculate the percent loss of GFP signal after compound exposure as determined by comparison with control wells containing cells that were not exposed to the chemical agent (see data analysis below).
Data analysis. All compounds, including controls, were screened in triplicate. The average of the three wells that were used for the removal of the background fluorescence (wells containing water for the HeLa-GFP assays and wells containing media alone for bacteria) was subtracted from each individual well. The mean of these triplicate values for each compound was then obtained. These mean values were then divided by the average obtained for maximum fluorescence (cells not treated with compound) and then multiplied by 100 to obtain the percentage values as shown in Table 1.

[3] = system: M. avium-GFP (strain MAC104); assay: Toxicity assay with GFP-expressing M. avium; details: for Percent-GFP-fluorescence after incubation with test compounds, M. avium-GFP (20 μg/ml): 18 h incubation, relative to untreated bacteria; for toxicity to M. avium (in words): loss of GFP signal, Table 1 screen
Protocol: as §1, §2, §3

SMILES | cytolysis (positive control) (HeLa-GFP cells [1]; 1 mM, HeLa-GFP) [%] | Percent-GFP-fluorescence after incubation with test compounds, E. coli-GFP (20 μg/ml) (E. coli-GFP) [%] | toxicity to E. coli (in words) (E. coli-GFP) | toxicity to E. coli (in words) (E. coli-GFP; listed as Plumbagin) | Percent-GFP-fluorescence after incubation with test compounds, HeLa-GFP (2 μg/ml) (HeLa-GFP cells [2]) [%] | Percent-GFP-fluorescence after incubation with test compounds, HeLa-GFP (20 μg/ml) (HeLa-GFP cells [2]) [%] | toxicity to HeLa-GFP cells (in words) (HeLa-GFP cells [2]) | toxicity to HeLa-GFP cells (in words) (HeLa-GFP cells [2]; listed as Plumbagin) | Percent-GFP-fluorescence after incubation with test compounds, M. avium-GFP (20 μg/ml) [3] [%] | toxicity to M. avium (in words) [3] | toxicity to M. avium (in words) ([3]; listed as Plumbagin) | approximate LD50 in HeLa-GFP (HeLa-GFP cells [1]) [µM]
OO [Compound H2O2, H2O2] | 100 |  |  |  |  |  |  |  |  |  |  | 
CC1=CC(=O)c2c(O)cccc2C1=O [Compound Q1, plumbagin, reference compound] |  | 1.0 | most toxic | most toxic compound to E. coli | 13.0 | 9.0 | most toxic | third-most toxic to HeLa cells | 7.0 | most toxic | most toxic to M. avium | ~3.0
O=C1C=CC(=O)c2c(O)ccc(O)c21 [Compound Q3, naphthazarin, reference compound] |  | 41.0 | highly toxic |  | 0 | 4.0 | highly toxic |  | 38.0 | highly toxic |  | ~3.0
CCCC12OC1(CC)C(=O)c1ccccc1C2=O (centres unmarked) [Compound Q27] |  | 117.0 |  |  | 21.0 | 21.0 |  |  | 133.0 |  |  | 
CCOC(=O)C12OC1(CC)C(=O)c1ccccc1C2=O (centres unmarked) [Compound Q28] |  | 115.0 |  |  | 17.0 | 4.0 |  |  | 97.0 |  |  | 
COc1ccc(CC(=O)n2nnc(C3=C(CO)C(=O)c4ccccc4C3=O)c2CO)cc1 [Compound Q30] |  | 105.0 |  |  | 84.0 | 47.0 |  |  | 96.0 |  |  | 
C[Si](C)(C)n1nnc(C2=C(CO)C(=O)c3ccccc3C2=O)c1CO [Compound Q31] |  | 107.0 |  |  | 88.0 | 82.0 |  |  | 94.0 |  |  | 
COC(=O)c1ccccc1C1=C(CNC(=O)OC(C)(C)C)C(=O)c2ccccc2C1=O [Compound Q32] |  | 99.0 |  |  | 88.0 | 57.0 |  |  | 80.0 |  |  | 
COC(=O)c1ccccc1C1=C(CN(C(=O)OC(C)(C)C)C(=O)OC(C)(C)C)C(=O)c2ccccc2C1=O [Compound Q33] |  | 102.0 |  |  | 88.0 | 62.0 |  |  | 74.0 |  |  | 
CCOC(=O)c1ccccc1C1=C(CNC(=O)OC(C)(C)C)C(=O)c2ccccc2C1=O [Compound Q34] |  | 87.0 |  |  | 86.0 | 49.0 |  |  | 64.0 |  |  | 
CCOC(=O)c1ccccc1C1=C(CN(C(=O)OC(C)(C)C)C(=O)OC(C)(C)C)C(=O)c2ccccc2C1=O [Compound Q35] |  | 104.0 |  |  | 85.0 | 58.0 |  |  | 108.0 |  |  | 
CCOC(=O)c1cccc(C2=C(CNC(=O)OC(C)(C)C)C(=O)c3ccccc3C2=O)c1 [Compound Q36] |  | 100.0 |  |  | 89.0 | 59.0 |  |  | 93.0 |  |  | 
CCOC(=O)c1cccc(C2=C(CN(C(=O)OC(C)(C)C)C(=O)OC(C)(C)C)C(=O)c3ccccc3C2=O)c1 [Compound Q37] |  | 105.0 |  |  | 90.0 | 62.0 |  |  | 92.0 |  |  | 
CCOC(=O)c1ccc(C2=C(CNC(=O)OC(C)(C)C)C(=O)c3ccccc3C2=O)cc1 [Compound Q38] |  | 103.0 |  |  | 81.0 | 61.0 |  |  | 119.0 |  |  | 
CCOC(=O)c1ccc(C2=C(CN(C(=O)OC(C)(C)C)C(=O)OC(C)(C)C)C(=O)c3ccccc3C2=O)cc1 [Compound Q39] |  | 108.0 |  |  | 88.0 | 62.0 |  |  | 96.0 |  |  | 
